Source: patent US6458781B1, “Substituted diarylalkyl amides as calcium channel antagonists” (priority 1998, dated 2002)
Counter-ions that a name gives are not always drawn. Like-named read-outs stand apart in the source and are kept apart here.

Columns and labels:
[1] = target: T1, N-type calcium channels in IMR-32 cells (Homo sapiens, UniProt Q00975); assay: N-type Ca2+ channel blocking potency in IMR-32 cells using Indo-1; type: cell-based; details: for IC50: IMR-32 cells, 5 μM nitrendipine present, read-out: IMR32 IC50
T1 construct: host or cells: IMR-32 cells differentiated with dibutyryl cAMP and bromodeoxyuridine
T1 sequence (Q00975 whole entry): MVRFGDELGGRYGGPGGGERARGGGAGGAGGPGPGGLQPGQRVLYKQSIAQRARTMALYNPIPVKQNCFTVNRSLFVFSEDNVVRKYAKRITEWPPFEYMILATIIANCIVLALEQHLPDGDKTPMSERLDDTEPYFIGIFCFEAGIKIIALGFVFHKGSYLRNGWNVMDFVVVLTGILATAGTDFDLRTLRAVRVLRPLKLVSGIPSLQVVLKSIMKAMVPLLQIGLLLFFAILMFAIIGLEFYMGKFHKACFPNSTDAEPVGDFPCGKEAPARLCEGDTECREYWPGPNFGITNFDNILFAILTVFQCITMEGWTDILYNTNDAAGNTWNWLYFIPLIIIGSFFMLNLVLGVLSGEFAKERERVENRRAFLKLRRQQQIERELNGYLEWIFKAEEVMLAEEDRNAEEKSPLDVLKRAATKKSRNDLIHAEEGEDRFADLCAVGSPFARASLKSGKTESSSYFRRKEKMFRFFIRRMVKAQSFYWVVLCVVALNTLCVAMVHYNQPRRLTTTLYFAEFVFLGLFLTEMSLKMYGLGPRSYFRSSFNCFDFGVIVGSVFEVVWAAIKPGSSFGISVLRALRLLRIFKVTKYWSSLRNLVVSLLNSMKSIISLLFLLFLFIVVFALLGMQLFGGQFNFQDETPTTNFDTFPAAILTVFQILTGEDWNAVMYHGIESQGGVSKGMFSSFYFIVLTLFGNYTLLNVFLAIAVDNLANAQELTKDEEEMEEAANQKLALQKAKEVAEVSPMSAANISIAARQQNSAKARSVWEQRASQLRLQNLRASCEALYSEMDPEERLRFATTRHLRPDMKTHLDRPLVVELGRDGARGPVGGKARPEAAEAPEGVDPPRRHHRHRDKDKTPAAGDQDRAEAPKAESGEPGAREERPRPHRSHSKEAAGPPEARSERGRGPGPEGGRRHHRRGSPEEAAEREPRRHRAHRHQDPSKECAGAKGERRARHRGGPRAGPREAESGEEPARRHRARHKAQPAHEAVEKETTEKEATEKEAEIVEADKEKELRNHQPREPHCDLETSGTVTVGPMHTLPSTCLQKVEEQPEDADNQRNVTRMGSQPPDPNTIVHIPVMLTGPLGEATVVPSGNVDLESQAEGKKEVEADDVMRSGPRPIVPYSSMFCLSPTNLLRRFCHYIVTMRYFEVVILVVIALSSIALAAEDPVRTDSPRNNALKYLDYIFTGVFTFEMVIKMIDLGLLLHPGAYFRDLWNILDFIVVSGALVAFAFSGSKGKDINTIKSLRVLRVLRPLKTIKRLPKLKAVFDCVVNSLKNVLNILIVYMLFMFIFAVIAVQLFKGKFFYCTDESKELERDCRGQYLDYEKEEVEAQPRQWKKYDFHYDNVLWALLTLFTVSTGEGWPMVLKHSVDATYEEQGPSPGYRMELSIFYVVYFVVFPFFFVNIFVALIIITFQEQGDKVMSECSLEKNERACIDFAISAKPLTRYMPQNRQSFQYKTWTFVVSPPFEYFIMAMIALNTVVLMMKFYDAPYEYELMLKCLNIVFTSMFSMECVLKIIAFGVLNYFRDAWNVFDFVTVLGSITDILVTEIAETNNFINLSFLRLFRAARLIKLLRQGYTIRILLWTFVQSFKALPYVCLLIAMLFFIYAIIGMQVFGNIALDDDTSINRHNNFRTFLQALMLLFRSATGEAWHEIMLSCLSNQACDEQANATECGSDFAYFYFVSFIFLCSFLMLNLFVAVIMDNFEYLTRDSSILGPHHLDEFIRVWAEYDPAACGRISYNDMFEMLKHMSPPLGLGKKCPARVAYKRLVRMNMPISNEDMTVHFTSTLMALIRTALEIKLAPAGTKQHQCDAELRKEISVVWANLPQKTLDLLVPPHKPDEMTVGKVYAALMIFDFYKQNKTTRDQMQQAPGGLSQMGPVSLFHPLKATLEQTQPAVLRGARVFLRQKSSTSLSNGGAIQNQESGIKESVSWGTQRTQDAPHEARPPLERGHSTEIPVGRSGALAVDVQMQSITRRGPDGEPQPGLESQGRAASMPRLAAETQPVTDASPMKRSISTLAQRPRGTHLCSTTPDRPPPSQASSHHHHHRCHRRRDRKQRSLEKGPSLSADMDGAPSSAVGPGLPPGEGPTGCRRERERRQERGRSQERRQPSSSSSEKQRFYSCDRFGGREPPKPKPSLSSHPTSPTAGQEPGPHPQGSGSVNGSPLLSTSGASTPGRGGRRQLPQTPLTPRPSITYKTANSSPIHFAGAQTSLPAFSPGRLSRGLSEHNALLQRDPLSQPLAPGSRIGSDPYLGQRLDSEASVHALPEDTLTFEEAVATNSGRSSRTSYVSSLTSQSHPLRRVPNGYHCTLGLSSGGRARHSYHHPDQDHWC
T1 sequence (P54289 25-956 partner limits assumed): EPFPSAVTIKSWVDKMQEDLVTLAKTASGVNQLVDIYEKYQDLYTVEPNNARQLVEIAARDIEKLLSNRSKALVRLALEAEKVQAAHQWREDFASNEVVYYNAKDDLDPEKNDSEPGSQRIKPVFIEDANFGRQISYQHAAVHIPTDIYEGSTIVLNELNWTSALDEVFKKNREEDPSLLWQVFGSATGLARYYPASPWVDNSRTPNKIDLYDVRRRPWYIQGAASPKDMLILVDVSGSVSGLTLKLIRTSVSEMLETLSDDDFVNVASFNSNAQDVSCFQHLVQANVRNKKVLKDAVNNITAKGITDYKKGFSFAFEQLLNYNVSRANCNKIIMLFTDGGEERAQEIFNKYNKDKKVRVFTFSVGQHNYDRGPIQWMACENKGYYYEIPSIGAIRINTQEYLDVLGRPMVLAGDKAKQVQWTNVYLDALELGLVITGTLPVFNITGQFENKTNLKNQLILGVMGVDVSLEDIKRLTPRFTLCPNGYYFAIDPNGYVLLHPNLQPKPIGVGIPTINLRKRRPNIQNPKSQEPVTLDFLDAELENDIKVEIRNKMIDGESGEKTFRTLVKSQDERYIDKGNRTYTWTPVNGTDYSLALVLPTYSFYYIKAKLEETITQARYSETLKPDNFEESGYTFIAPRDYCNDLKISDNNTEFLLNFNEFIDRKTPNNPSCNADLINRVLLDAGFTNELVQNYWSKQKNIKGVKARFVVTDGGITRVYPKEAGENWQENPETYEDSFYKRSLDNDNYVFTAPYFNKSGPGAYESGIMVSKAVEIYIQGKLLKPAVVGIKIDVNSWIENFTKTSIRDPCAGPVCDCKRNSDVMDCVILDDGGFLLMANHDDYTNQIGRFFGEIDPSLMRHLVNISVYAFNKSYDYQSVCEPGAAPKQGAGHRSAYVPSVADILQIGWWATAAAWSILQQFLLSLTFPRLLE
T1 sequence (P54289 957-1103 partner limits assumed): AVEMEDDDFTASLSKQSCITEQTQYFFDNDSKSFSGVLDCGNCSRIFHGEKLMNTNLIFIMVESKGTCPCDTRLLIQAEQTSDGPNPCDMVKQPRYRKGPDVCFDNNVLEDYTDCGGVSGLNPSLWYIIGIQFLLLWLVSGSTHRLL
T1 sequence (Q02641 whole entry partner): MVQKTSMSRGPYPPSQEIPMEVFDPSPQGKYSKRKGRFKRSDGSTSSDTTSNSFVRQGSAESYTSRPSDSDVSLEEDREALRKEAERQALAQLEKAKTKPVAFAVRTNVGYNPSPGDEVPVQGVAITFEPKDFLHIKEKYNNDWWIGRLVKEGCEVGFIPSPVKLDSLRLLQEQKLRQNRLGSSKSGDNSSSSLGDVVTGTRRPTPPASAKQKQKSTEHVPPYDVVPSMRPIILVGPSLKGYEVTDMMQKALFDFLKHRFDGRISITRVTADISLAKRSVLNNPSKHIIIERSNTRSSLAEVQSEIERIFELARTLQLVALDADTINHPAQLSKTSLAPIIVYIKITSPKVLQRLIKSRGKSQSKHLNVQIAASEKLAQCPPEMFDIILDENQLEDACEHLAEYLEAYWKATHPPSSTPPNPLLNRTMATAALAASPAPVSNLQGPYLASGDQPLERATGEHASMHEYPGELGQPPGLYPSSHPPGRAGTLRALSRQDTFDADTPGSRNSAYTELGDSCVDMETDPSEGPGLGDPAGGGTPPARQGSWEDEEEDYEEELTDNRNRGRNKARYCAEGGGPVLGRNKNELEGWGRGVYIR
Method in brief: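 Differentiated IMR-32 cells loaded with Indo-1 AM were preincubated with compound and 5 μM nitrendipine (L-type block) for 10 min at 30° C in HEPES/Tris pH 7.4 HBSS with 0.5% BSA. Cells were depolarized with KCl/CaCl2, and the 400/490 nm emission ratio rise over basal was measured. IC50 came from a four-parameter logistic fit.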

[2] = tested on: sound-induced tonic convulsions in DBA/2 mice; assay: Audiogenic seizure model in DBA/2 mice; type: in vivo; details: Mus musculus, 30 mg/Kg IV, protected/tested, read-out: Number of Mice Protected From Tonic Convulsions (converted)
Description: Audiogenic Seizure Model in DBA/2 Mice
A compound of the present invention was dissolved in water using 10% (weight/volume) Emulphor (GAF Corp., Wayne, N.J.) surfactant. Substances were administered by intravenous injection into the retro-orbital venous sinus of male mice (3-4 weeks old, Jackson Laboratories, Bar Harbour, Me.). All testing was preformed 15 minutes or 45 minutes after drug injection. Immediately before anticonvulsant testing, mice were placed upon a wire mesh, 4 inches square suspended from a steel rod. The square was slowly inverted through 180 degrees and mice observed for 30 seconds. Any mouse falling from the wire mesh was scored as ataxic.
Mice were placed into an enclosed acrylic plastic chamber (21 cm height, approximately 30 cm diameter) with a high-frequency speaker (4 cm diameter) in the center of the top lid. An audio signal generator (Protek model B-810) was used to produce a continuous sinusoidal tone that Was swept linearly in frequency between 8 kHz and 16 kHz once each 10 msec. The average sound pressure level (SPL) during stimulation was approximately 100 dB at the floor of the chamber. Mice were placed within the chamber and allowed to acclimatize for 1 minute. DBA/2 mice in the vehicle-treated group responded to the sound stimulus (applied until tonic extension occurred, or for a maximum of 60 sec) with a characteristic seizure sequence consisting of wild running followed by clonic seizures, and later by tonic extension, and finally by respiratory arrest and death in 80% or more of the mice. In vehicle-treated mice, the entire sequence of seizures to respiratory arrest lasts approximately 15-20 seconds.
The incidence of all the seizure phases in the drug-treated and vehicle-treated mice was recorded, and the occurrence of tonic seizures were used for calculating anticonvulsant ED50 values by probit analysis. Mice were used only once for testing at each time and dose point.

[3] = target: T2, N-type Ca2+ channels in cultured superior cervical ganglion (SCG) neurons (Rattus norvegicus, UniProt Q02294); assay: Calcium current in superior cervical ganglion neurons (whole-cell voltage clamp); type: cell-based; details: for inhibition at 1 µM: read-out: SCG Ca, % blockage at 1 μM; for inhibition at 10 µM: read-out: SCG Ca, % blockage at 10 μM
T2 construct: from tissue
Description: (§1) Electrophysiological techniques were used to measure the effects of experimental compounds on voltage-gated Ca^2+, […] , and K^+ channels. […] Sodium and potassium channel currents were measured from acutely dissociated SCG neurons.
(§2) Dissociation of the neurons from the ganglia was accomplished using a 30 to 45 minute treatment in 0.25% trypsin, similar to methods outlined in Higgins, et al. (see Higgins D. et al. “Tissue culture of mammalian autonomic neurons.” In Banker G. and Goslin K. (Eds), Culturing Nerve Cells, Cambridge, Mass., MIT Press [1991]).
(§3) Ca^2+, Na^+, and K^+ channel currents in SCG neurons were measured using conventional single electrode whole-cell voltage-clamp techniques, outlined in Hamill et al., (see Hamill O. P. et al. “Improved patch-clamp techniques for high resolution current recordings from cells and cell-free membrane patches.”Pflugers Arch., 1981;391:85-100). For Ca^2+ channel experiments, the external bathing solution contained tetraethylammonium chloride (100 mM), choline chloride (52 mM), NaCl (15 mM), HEPES (10 mM), glucose (5.6 mM), CaCl2 (2 mM), and MgCl2 (0.8 mM), pH 7.35 with KOH; with the internal pipette solution containing cesium methane sulfonate (140 mM), EGTA (10 mM), and HEPES (10 mM), supplemented with 5 mM Mg^2+-ATP on the day of the experiment, pH 7.4 with CsOH. For Na^+ and K^+ channel experiments, the external bathing solution contained NaCl (150 mM), KCl (5 mM), MgCl2 (1.1 mM), CaCl2 (2.6 mM), Na-HEPES (10 mM), and glucose (10 mM), pH 7.4; with the internal pipette solution containing KCl (80 mM), K-gluconate (50 mM), HEPES (10 mM), and EGTA (10 mM), pH 7.4 with KOH. Experimental compounds were diluted into the external solution and applied to the soma of cells by local perfusion from large diameter (20-50 μm) glass micropipettes or from a U-tube applicator.
After obtaining a whole-cell recording, Ca^2+ channels were elicited by stepping to test potentials between −40 and +20 mV for 120 msec from the holding potential of −90 mV to determine if the amplitude of the current and clamp control were adequate for evaluation of drug effects. Ca^2+ channel currents were evoked by stepping from a holding potentials between −65 mV and −55 mV to a test potential of +20 mV for 150 msec every 40 seconds. The amplitude of the Ca^2+ channel currents were compared before and during drug application and drug effects expressed as percent inhibition of the amplitude of control currents.

[4] = tested on: K+ channels in SCG neurons; assay: Potassium current in superior cervical ganglion neurons (whole-cell voltage clamp); type: cell-based, rat
Description: as §1, §2, §3
(§4) For Na^+ and K^+ channel currents, following the determination of the I/V relationship for each cell in control solution, currents were evoked from a holding potential between −65 and −55 mV by stepping every 10 sec to a test potential of either 0 mV for Na^+ or +50 mV for K^+ current for a duration of 35 msec. Peak inward current was measured for Na^+ and sustained current for K^+ channel currents. […] Test compounds were applied until steady-state block was achieved. Data were expressed as percent inhibition of control amplitudes for Na^+ and K^+ channel currents.

[5] = tested on: Na+ channels in SCG neurons; assay: Sodium current in superior cervical ganglion neurons (whole-cell voltage clamp); type: cell-based, rat; details: at 10 μM
Description: as §1, §2, §3, §4

[6] = tested on: electroshock-induced tonic extensor seizures in CF-1 mice; assay: Maximal electroshock testing; type: in vivo; details: protected/tested
Description: Maximal Electroshock Testing
In this test, four representative compounds were tested for their anticonvulsant effects using the procedure described below.
Male CF-1 mice, 20 to 28 g, from Charles River Laboratories, Portage, Mich. were used in all experiments. Groups of 10 mice each were given various intravenous doses of test compound in aqueous solution with 10% Emulphan® Surfactant in a volume of 10 mL/kg of body weight. Electroshock was delivered by corneal electrodes with 60 Hz alternating current (50 mA root-mean-squared for 0.2 seconds) using a constant-current stimulator (Wahlquist Instruments, Salt Lake City, Utah). Untreated or saline-treated mice reliably had tonic extensor seizures with rearward extension of hindlimbs more than 3 seconds. These methods are similar to those published by Krall R. L.; Penry J. K.; White B. G.; and Kupferberg H. K. Antiepileptic Drug Development II. Anticonvulsant Drug Screening, Epilepsia, 1978; 19:409-428.

[7] = 10 mg/Kg iv, 15 min posttreatment

Row | SMILES | IC50 [1] | responders at 30 mg/kg ([2]; 0.25 h, 15 min posttreatment) | inhibition at 1 µM [3] | inhibition at 10 µM [3] | SCG K, % blockage at 1 μM [4] | SCG K, % blockage at 10 μM [4] | SCG Na, % blockage at 10 μM [5] | melting point | Number of Mice Protected from Tonic Convulsions [6, 7] | inhibition at 1 µM ([1]; IMR-32, IMR-32 cells, at 1 μM, read-out: IMR32 % blockage at 1 μM) | inhibition at 10 µM ([1]; IMR-32, IMR-32 cells, at 10 μM, read-out: IMR32 % blockage at 10 μM) | responders at 30 mg/kg ([2]; 0.75 h, 45 min posttreatment) | Number of Mice Protected from Tonic Convulsions ([6]; 10 mg/Kg iv, 45 min posttreatment) | Number of Mice Protected from Tonic Convulsions ([6]; 30 mg/Kg iv, 15 min posttreatment) | Number of Mice Protected from Tonic Convulsions ([6]; 30 mg/Kg iv, 45 min posttreatment)
1 | CC(C)C[C@H](NC(=O)N1CCCCCC1)C(=O)NCCCC(c1ccc(F)cc1)c1ccc(F)cc1 [Example 1, (S)-Azepane-1-carboxylic acid {1-[4,4-bis-(4-fluoro-phenyl)-butylcarbamoyl]-3-methyl-butyl}-amide] | 820 nM | 60% | 17% | 16% | 4.3% @ 1 | 3% @ 10 | 14% @ 10 | – | – | – | – | – | – | – | –
2 | CC(C)C[C@H](NC(=O)N1CCCCCC1)C(=O)NC(c1ccccc1)c1ccccc1 [Example 3, (S)-Azepane-1-carboxylic acid [1-(benzhydryl-carbamoyl)-3-methyl-butyl]-amide] | 4400 nM | – | – | 33% | – | 48% @ 10 | 5% @ 10 | 180 to 181 °C | – | – | – | – | – | – | –
3 | CC(C)=CCN(C)[C@@H](CC(C)C)C(=O)NCCCC(c1ccc(F)cc1)c1ccc(F)cc1 [Example 13, (S)-4-Methyl-2-[methyl-(3-methyl-but-2-enyl)-amino]-pentanoic acid [4,4-bis-(4-fluoro-phenyl)-butyl]-amide monohydrochloride] | 520 nM | – | 23% | 77% | 10% @ 1 | 48% @ 10 | 95% @ 10 | – | 3/5 | – | – | – | – | – | –
4 | CC(C)C[C@H](NC1CCCCC1)C(=O)NCCCC(c1ccc(F)cc1)c1ccc(F)cc1.Cl [Example 15, (S)-2-Cyclohexylamino-4-methyl-pentanoic acid [4,4-bis-(4-fluoro-phenyl)-butyl]-amide monohydrochloride] | – | 100% | – | – | – | – | – | – | 5/5 | 62% | 87% | 100% | 2/5 | 3/3 | 5/5
